Measured values: patent US11993584B2, “Solid forms of an azolopyrimidine compound” (ARCUS BIOSCIENCES, INC., priority 2018, dated 2024)

Legend:
[1] = target: T1, A2BR (Homo sapiens, UniProt P29275); conditions: antagonist; has been reported (U.S. Ser. No. 15/875,106, PCT/US18/14352); cited from earlier work
T1 sequence (P29275 1-332): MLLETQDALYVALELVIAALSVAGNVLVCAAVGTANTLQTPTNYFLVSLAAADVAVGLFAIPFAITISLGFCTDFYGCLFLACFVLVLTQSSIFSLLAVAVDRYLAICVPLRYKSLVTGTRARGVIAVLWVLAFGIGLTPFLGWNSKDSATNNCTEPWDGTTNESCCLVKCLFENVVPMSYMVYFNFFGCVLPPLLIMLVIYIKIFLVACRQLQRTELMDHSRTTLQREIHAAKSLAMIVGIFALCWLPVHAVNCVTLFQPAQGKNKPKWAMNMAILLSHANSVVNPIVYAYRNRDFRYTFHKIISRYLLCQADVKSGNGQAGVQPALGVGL

[2] = target: A2AR (Homo sapiens, UniProt P29274); conditions: antagonist; has been reported (U.S. Ser. No. 15/875,106, PCT/US18/14352); cited from earlier work
A2AR, sequence (P29274 whole entry): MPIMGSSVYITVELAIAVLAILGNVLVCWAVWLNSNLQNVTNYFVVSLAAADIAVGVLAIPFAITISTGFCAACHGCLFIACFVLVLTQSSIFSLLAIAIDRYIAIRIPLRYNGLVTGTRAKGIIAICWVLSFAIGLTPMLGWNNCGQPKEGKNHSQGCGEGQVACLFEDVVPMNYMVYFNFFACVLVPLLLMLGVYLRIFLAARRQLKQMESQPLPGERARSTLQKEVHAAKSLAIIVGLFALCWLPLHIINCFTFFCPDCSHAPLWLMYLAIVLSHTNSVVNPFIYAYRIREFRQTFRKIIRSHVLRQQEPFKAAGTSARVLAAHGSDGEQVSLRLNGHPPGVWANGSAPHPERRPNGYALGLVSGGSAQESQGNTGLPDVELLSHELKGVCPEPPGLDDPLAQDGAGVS

[3] = Dynamic vapor sorption (DVS) hygroscopicity; assay type: physicochemical
Procedure: Approximately 10 mg of sample was placed into a mesh vapor sorption balance pan and loaded into a DVS-1, DVS Intrinsic or DVS Advantage dynamic vapor sorption balance by Surface Measurement Systems. The sample was subjected to a ramping profile from 40-90% relative humidity (RH) at 10% increments, maintaining the sample at each step until a stable weight had been achieved (dm/dt 0.004%, minimum step length 30 min, maximum step length 500 min) at 25° C. After completion of the sorption cycle, the sample was dried using the same procedure to 0% RH and then a second sorption cycle back to 40% RH. Two cycles were performed. The weight change during the sorption/desorption cycles were plotted, allowing for the hygroscopic nature of the sample to be determined. XRPD analysis was then carried out on any solid retained.
A quantity of Compound I Form I was analyzed by dynamic vapor sorption (DVS). The sample was subjected to a ramping profile from 40-90% RH at 10% increments, maintaining the sample at each step until a stable weight had been achieved at 25° C. After completion of the sorption cycle, the sample was dried using the same procedure to 0% RH and then a second sorption cycle back to 40% RH. Two cycles were performed. The weight change during the sorption/desorption cycles were plotted, allowing for the hygroscopic nature of the sample to be determined.

[4] = Solid-state stability of Form I under stress storage, analysis by HPLC and XRPD; assay type: physicochemical
Procedure: XRPD analysis was carried out on a PANalytical X'pert pro, scanning the samples between 3 and […] 2θ. The material was gently ground to release any agglomerates and loaded onto a multi-well plate with Kapton or Mylar polymer film to support the sample. The multi-well plate was then placed into the diffractometer and analyzed using Cu K radiation (α1λ=1.54060 Å; α2=1.54443 Å; β=1.39225 Å; α1: α2 ratio=0.5) running in transmission mode (step size 0.0130° 2θ) using 40 kV/40 mA generator settings.
• Instrument: Agilient 1100 • Column: Zorbax Eclipse Plus C18 150 mm×3.0 mm, 3.5 μm particle size • Column Temperature: 35° C. • Autosampler Temperature: Ambient • UV wavelength: 228 nm • Injection Volume: 3 μL • Flow Rate: 1 mL/min • Mobile Phase A: Water (0.1% formic acid in 95:5 water:ACN) • Mobile Phase B: ACN (0.1% formic acid) • Gradient program: […]
Vials containing a quantity of Form I of Compound I were subjected to a temperature of 40° C. at 75% relative humidity (RH) for one week. […] Additionally, vials containing a quantity of the crystalline material were subjected to a temperature of 80° C. in a closed vial for one week.

[5] = Competitive 1:1 slurry experiments of the two forms; assay type: physicochemical; conditions: 1:1 slurry of Form I and Form III, variety of solvents
[6] = Qualitative dissolution of amorphous Compound I in solvents; assay type: physicochemical; conditions: 40 mg sample
Procedure: Amorphous Compound I was produced by dissolving Compound I in 1,4-dioxane and subsequent lyophilization. The amorphous solid form was confirmed by the lack of indicative peaks by XRPD. To the amorphous Compound I, solvent was added to the 12×40 mg samples to prepare slurries for thermal cycling. The material was readily soluble in many of the 12 solvents and therefore, several of the samples were thermally cycled as saturated solutions.

Question: Which results are given for `Cc1c(C#N)cccc1-c1cc(-c2cn(Cc3cccc(C(C)(C)O)n3)nn2)nc(N)n1` [Compound I, 3-[2-amino-6-(1-{[6-(2-hydroxypropan-2-yl)pyridin-2-yl]methyl}-1H-1,2,3-triazol-4-yl)pyrimidin-4-yl]-2-methylbenzonitrile]?
Answer: potency on A2BR [1]: less than 10 nM; potency on A2AR [2]: less than 10 nM

Question: With `Cc1c(C#N)cccc1-c1cc(-c2cn(Cc3cccc(C(C)(C)O)n3)nn2)nc(N)n1` [Form I of Compound I, 3-[2-amino-6-(1-{[6-(2-hydroxypropan-2-yl)pyridin-2-yl]methyl}-1H-1,2,3-triazol-4-yl)pyrimidin-4-yl]-2-methylbenzonitrile] as the compound, how does the hygroscopic nature ([3]; DVS, 25° C.) read?
Answer: slightly hygroscopic

Question: And the “XRPD analysis of resultant solid after DVS” value ([3]; after two sorption/desorption cycles)?
Answer: no change in morphology observed

Question: And the “maximum absorption of water (DVS)” value ([3]; at 90% relative humidity, 25° C., 0-90% RH range, reversible)?
Answer: 1.1%

Question: And the “hysteresis upon cycling (DVS)” value ([3]; two cycles, 0-90% RH)?
Answer: No hysteresis was observed

Question: And the “stability (decomposition, morphology change) by HPLC and XRPD” value ([4]; 40° C. at 75% relative humidity (RH) for one week)?
Answer: stable with no decomposition or morphology change observed

Question: What about the “stability (decomposition, morphology change) by HPLC and XRPD” value ([4]; 80° C. in a closed vial for one week) of the same compound?
Answer: stable with no decomposition or change in morphology observed

Question: Which “form conversion in competitive slurry” value [5] does the source give for `Cc1c(C#N)cccc1-c1cc(-c2cn(Cc3cccc(C(C)(C)O)n3)nn2)nc(N)n1` [Form III, 3-[2-amino-6-(1-{[6-(2-hydroxypropan-2-yl)pyridin-2-yl]methyl}-1H-1,2,3-triazol-4-yl)pyrimidin-4-yl]-2-methylbenzonitrile] here?
Answer: converted to Form I

Question: Which results are given for `Cc1c(C#N)cccc1-c1cc(-c2cn(Cc3cccc(C(C)(C)O)n3)nn2)nc(N)n1` [amorphous Compound I, 3-[2-amino-6-(1-{[6-(2-hydroxypropan-2-yl)pyridin-2-yl]methyl}-1H-1,2,3-triazol-4-yl)pyrimidin-4-yl]-2-methylbenzonitrile]?
Answer: Slurry or Solution ([6]; 1,4-Dioxane, 200 μL): Solution; Slurry or Solution ([6]; 2-Ethoxyethanol, 200 μL): solution; Slurry or Solution ([6]; 25% Acetone/75% water, 200 μL): Solution; Slurry or Solution ([6]; 25% MeCN/75% water, 300 μL): Slurry; Slurry or Solution ([6]; Isopropanol, 400 μL): Slurry; Slurry or Solution ([6]; Isopropyl acetate, 200 μL): Solution; Slurry or Solution ([6]; Methanol, 200 μL): Solution; Slurry or Solution ([6]; THF, 200 μL): Solution; Slurry or Solution ([6]; Toluene, 700 μL): Slurry; Slurry or Solution ([6]; acetonitrile, 400 μL): Slurry; Slurry or Solution ([6]; dichloromethane, 200 μL): Solution; Slurry or Solution ([6]; water, 700 μL): slurry
